For assay [1], the system named is E. coli mL308 225. The experiment in a line: In Vitro Anti-Bacterial Activity Assay (MIC), gram negative. In kind it is cell-based. The settings on record: Escherichia coli, ML308225, 18 h.
The test system of assay [2] is S. aureus RN450. The experiment in a line: In Vitro Anti-Bacterial Activity Assay (MIC), gram positive. In kind it is cell-based. The settings on record: Staphylococcus aureus, RN450, 18 h.
Where [3] appears, read: MIC class, Table 3 (Continued), read-out: Gram− activity.
The mark [4] stands for this setting: MIC class, Table 3 (Continued), read-out: Gram+ activity.
The mark [5] stands for this setting: MIC class, Table 3, read-out: Antibiotic Activity Gram −.
Where [6] appears, read: MIC class, Table 3, read-out: Antibiotic Activity Gram +.
[7] abbreviates: gram negative bacteria, read-out: Antibiotic Activity Gram − (MIC).
Where [8] appears, read: gram positive bacteria, read-out: Antibiotic Activity Gram + (MIC).

Like-named read-outs stand apart in the source and are kept apart here. A value given as a limit tells only on which side of the number the result lay.

Take `CN(C)[C@@H]1C(O)=C(C(N)=O)C(=O)[C@@]2(O)C(O)=C3C(=O)c4c(O)ccc(CC(Cl)C5=CCCCC5)c4C[C@H]3C[C@@H]12` (stereo partly shown): the MIC in assay [1] (setting [3]) and in assay [2] (setting [4]) was < 4 µg/mL in each case.

Consider `Cc1csc(NCc2cc(N(C)C)c3c(c2O)C(=O)C2=C(O)[C@]4(O)C(=O)C(C(N)=O)=C(O)C(N(C)C)[C@@H]4C[C@@H]2C3)n1` (stereo partly shown) [MS], for which the MIC in assay [1] (setting [5]) was > 4 µg/mL; in assay [2] (setting [6]) it was < 4 µg/mL.

Take `CN(C)[C@@H]1C(O)=C(C(N)=O)C(=O)[C@@]2(O)C(O)=C3C(=O)c4c(O)ccc(-c5cccc(C(N)=O)c5)c4C[C@H]3C[C@@H]12` [CN]: the MIC in assay [1] (setting [5]) and in assay [2] (setting [6]) was < 4 µg/mL throughout.

Regarding `CN(C)[C@@H]1C(O)=C(C(N)=O)C(=O)[C@@]2(O)C(O)=C3C(=O)c4c(O)ccc(-c5ccc(NC(=O)c6ccco6)cc5)c4C[C@H]3C[C@@H]12`, the results for the MIC in assay [1] (setting [7]) and in assay [2] (setting [8]) were > 4 µg/mL and < 4 µg/mL, respectively.

As for `COc1ccc(CNc2cc(N(C)C)c3c(c2O)C(=O)C2=C(O)[C@]4(O)C(=O)C(C(N)=O)=C(O)[C@@H](N(C)C)[C@@H]4C[C@@H]2C3)cc1O`, the MIC in assay [1] (setting [7]) and in assay [2] (setting [8]) was > 4 µg/mL throughout.

As for `CCCC(C)c1ccc(OC)c(-c2ccc(O)c3c2C[C@H]2C[C@H]4[C@H](N(C)C)C(O)=C(C(N)=O)C(=O)[C@@]4(O)C(O)=C2C3=O)c1` (stereo partly shown), the MIC in assay [1] (setting [7]) was > 4 µg/mL; in assay [2] (setting [8]), < 4 µg/mL.

With `CN(C)[C@@H]1C(O)=C(C(N)=O)C(=O)[C@@]2(O)C(O)=C3C(=O)c4c(O)ccc(CCCNS(C)(=O)=O)c4C[C@H]3C[C@@H]12` [CQ], the MIC in assay [1] (setting [5]) was > 4 µg/mL; in assay [2] (setting [6]), < 4 µg/mL.

`COC(=O)c1cc(N)cc(-c2ccc(O)c3c2C[C@H]2C[C@H]4[C@H](N(C)C)C(O)=C(C(N)=O)C(=O)[C@@]4(O)C(O)=C2C3=O)c1` [HE]: the MIC in assay [1] (setting [5]) was > 4 µg/mL; in assay [2] (setting [6]) it was < 4 µg/mL.

Consider `CN(C)c1cc(-c2cccs2)c(O)c2c1C[C@H]1C[C@H]3[C@H](N(C)C)C(O)=C(C(N)=O)C(=O)[C@@]3(O)C(O)=C1C2=O` [W], for which the MIC is > 4 µg/mL in assay [1] (setting [5]) and < 4 µg/mL in assay [2] (setting [6]).

Regarding `CC(=O)O[C@@H]1[C@H]2[C@H](N(C)C)C(O)=C(C(N)=O)C(=O)[C@@]2(O)C(O)=C2C(=O)c3c(O)cccc3C(C)[C@H]21` (stereo partly shown), the MIC in assay [1] (setting [3]) and in assay [2] (setting [4]) was < 4 µg/mL throughout.

Regarding `CCc1cc(CNC(=O)N2CCOCC2)c2c(c1O)C(=O)C1=C(O)[C@]3(O)C(=O)C(C(N)=O)=C(O)[C@@H](N(C)C)[C@@H]3C[C@@H]1C2`, the MIC in assay [1] (setting [7]) and in assay [2] (setting [8]) was > 4 µg/mL throughout.

Regarding `CN(C)c1cc(C#Cc2ccc(N)cc2)c(O)c2c1C[C@H]1C[C@H]3[C@H](N(C)C)C(O)=C(C(N)=O)C(=O)[C@@]3(O)C(O)=C1C2=O` [CX], the MIC in assay [1] (setting [5]) and in assay [2] (setting [6]) was > 4 µg/mL throughout.

In the case of `C[C@H]1c2ccc(N)c(O)c2C(=O)C2=C(O)[C@]3(O)C(=O)C(C(N)=O)=C(O)[C@@H](N(C)C)[C@@H]3[C@@H](O)[C@@H]21`, the MIC in assay [1] (setting [7]) and in assay [2] (setting [8]) was > 4 µg/mL each time.

For the molecule `CN(C)[C@@H]1C(O)=C(C(N)=O)C(=O)[C@@]2(O)C(O)=C3C(=O)c4c(O)c(CNCC(C)(C)C)cc(-c5ccccn5)c4C[C@H]3C[C@@H]12`, the MIC in assay [1] (setting [7]) was > 4 µg/mL; in assay [2] (setting [8]) it was < 4 µg/mL.

Consider `CNCc1cc(N(C)C)c2c(c1O)C(=O)C1=C(O)[C@]3(O)C(=O)C(C(N)=O)=C(O)[C@@H](N(C)C)[C@@H]3C[C@@H]1C2`, for which the MIC is > 4 µg/mL in assay [1] (setting [7]) and < 4 µg/mL in assay [2] (setting [8]).

Consider `CN(C)c1ccc(-c2cc(N)c(O)c3c2C[C@H]2C[C@H]4[C@@H](N(C)C)C(O)=C(C(N)=O)C(=O)[C@@]4(O)C(O)=C2C3=O)cc1` [ID], for which the MIC is > 4 µg/mL in assay [1] (setting [5]) and < 4 µg/mL in assay [2] (setting [6]).

Regarding `CN(C)[C@@H]1C(O)=C(C(N)=O)C(=O)[C@@]2(O)C(O)=C3C(=O)c4c(O)ccc(C#CCNS(C)(=O)=O)c4C[C@H]3C[C@@H]12` [CM], the MIC in assay [1] (setting [5]) and in assay [2] (setting [6]) was > 4 µg/mL throughout.

In the case of `C=CCCOC(=O)NCc1cc(N(C)C)c2c(c1O)C(=O)C1=C(O)[C@]3(O)C(=O)C(C(N)=O)=C(O)[C@@H](N(C)C)[C@@H]3C[C@@H]1C2` [EO], the MIC in assay [1] (setting [5]) is > 4 µg/mL; in assay [2] (setting [6]) it was < 4 µg/mL.

In the case of `Cc1ccc(-c2ccc(O)c3c2C[C@H]2C[C@H]4[C@H](N(C)C)C(O)=C(C(N)=O)C(=O)[C@@]4(O)C(O)=C2C3=O)nc1`, the MIC in assay [1] (setting [7]) and in assay [2] (setting [8]) was < 4 µg/mL each time.

As for `CN(C)c1cc(NC(=O)Nc2ccc(Cl)cc2[N+](=O)O)c(O)c2c1C[C@H]1C[C@H]3[C@H](N(C)C)C(O)=C(C(N)=O)C(=O)[C@@]3(O)C(O)=C1C2=O` [DC], the results for the MIC in assay [1] (setting [5]) and in assay [2] (setting [6]) were > 4 µg/mL and < 4 µg/mL, respectively.

Consider `CCOC(=O)NCc1cc(N(C)C)c2c(c1O)C(=O)C1=C(O)[C@]3(O)C(=O)C(C(N)=O)=C(O)[C@H](N(C)C)[C@@H]3C[C@@H]1C2` [ES], for which the MIC in assay [1] (setting [5]) is > 4 µg/mL; in assay [2] (setting [6]), < 4 µg/mL.

For `CN(C)[C@@H]1C(O)=C(C(N)=O)C(=O)[C@@]2(O)C(O)=C3C(=O)c4c(O)c(CS(C)(=O)=O)cc(I)c4C[C@H]3C[C@@H]12`, the values for the MIC in assay [1] (setting [7]) and in assay [2] (setting [8]) were > 4 µg/mL and < 4 µg/mL, respectively.

For the molecule `CN1CCC(NCc2ccc(O)c3c2C[C@H]2C[C@H]4[C@H](N(C)C)C(O)=C(C(N)=O)C(=O)[C@@]4(O)C(O)=C2C3=O)CC1` [KY], the MIC in assay [1] (setting [5]) and in assay [2] (setting [6]) was > 4 µg/mL each time.

For `CC(C)CN(Cc1ccc(O)c2c1C[C@H]1C[C@H]3[C@H](N(C)C)C(O)=C(C(N)=O)C(=O)[C@@]3(O)C(O)=C1C2=O)CC(C)C`, the MIC in assay [1] (setting [7]) and in assay [2] (setting [8]) was < 4 µg/mL throughout.

In the case of `CN(C)[C@@H]1C(O)=C(C(N)=O)C(=O)[C@@]2(O)C(O)=C3C(=O)c4c(O)ccc(-c5ccc(CN6CCOCC6)c6ccccc56)c4C[C@H]3C[C@@H]12`, the MIC in assay [1] (setting [7]) and in assay [2] (setting [8]) was < 4 µg/mL in each case.

As for `CN(C)[C@@H]1C(O)=C(C(N)=O)C(=O)[C@@]2(O)C(O)=C3C(=O)c4c(O)ccc(C#CCc5ccccc5)c4C[C@H]3C[C@@H]12`, the MIC in assay [1] (setting [3]) and in assay [2] (setting [4]) was < 4 µg/mL throughout.

For `CCCCOC(=O)NCc1cc(N(C)C)c2c(c1O)C(=O)C1=C(O)[C@]3(O)C(=O)C(C(N)=O)=C(O)[C@H](N(C)C)[C@@H]3C[C@@H]1C2` [ER], the values for the MIC in assay [1] (setting [5]) and in assay [2] (setting [6]) were > 4 µg/mL and < 4 µg/mL, respectively.

Consider `CCCN(C)Cc1cc(N(C)C)c2c(c1O)C(=O)C1=C(O)[C@]3(O)C(=O)C(C(N)=O)=C(O)[C@@H](N(C)C)[C@@H]3C[C@@H]1C2`, for which the MIC in assay [1] (setting [7]) is > 4 µg/mL; in assay [2] (setting [8]), < 4 µg/mL.

On to `CN(C)[C@@H]1C(O)=C(C(N)=O)C(=O)[C@@]2(O)C(O)=C3C(=O)c4c(O)ccc(C#CC5=CCCCC5)c4C[C@H]3C[C@@H]12`, for which the MIC in assay [1] (setting [3]) and in assay [2] (setting [4]) was < 4 µg/mL throughout.

For `CN(C)[C@@H]1C(O)=C(C(N)=O)C(=O)[C@@]2(O)C(O)=C3C(=O)c4c(O)c(C(C)(C)C)cc(C(N)C(=O)O)c4C[C@H]3C[C@@H]12` (stereo partly shown) [FS], the MIC in assay [1] (setting [5]) and in assay [2] (setting [6]) was > 4 µg/mL throughout.

For the molecule `CN(C)c1cc(NCc2ccc([N+](=O)[O-])o2)c(O)c2c1C[C@H]1C[C@H]3[C@H](N(C)C)C(O)=C(C(N)=O)C(=O)[C@@]3(O)C(O)=C1C2=O`, the MIC in assay [1] (setting [7]) was > 4 µg/mL; in assay [2] (setting [8]), < 4 µg/mL.

As to `CN(C)[C@@H]1C(O)=C(C(N)=O)C(=O)[C@@]2(O)C(O)=C3C(=O)c4c(O)ccc(C5CCOC5)c4C[C@H]3C[C@@H]12` (stereo partly shown), the MIC in assay [1] (setting [7]) and in assay [2] (setting [8]) was < 4 µg/mL each time.

As to `CN(C)[C@@H]1C(O)=C(C(N)=O)C(=O)[C@@]2(O)C(O)=C3C(=O)c4c(O)ccc(Cl)c4C[C@H]3C[C@@H]12`, the MIC in assay [1] (setting [7]) and in assay [2] (setting [8]) was < 4 µg/mL in each case.

Turning to `CCN(CC)Cc1cc(N(C)C)c2c(c1O)C(=O)C1=C(O)[C@]3(O)C(=O)C(C(N)=O)=C(O)[C@@H](N(C)C)[C@@H]3C[C@@H]1C2`, the results for the MIC in assay [1] (setting [7]) and in assay [2] (setting [8]) were > 4 µg/mL and < 4 µg/mL, respectively.

`Cc1ccc(/C=C/c2ccc(O)c3c2C[C@H]2C[C@H]4[C@H](N(C)C)C(O)=C(C(N)=O)C(=O)[C@@]4(O)C(O)=C2C3=O)cc1` [drawing 3345]: the MIC in assay [1] (setting [7]) and in assay [2] (setting [8]) was < 4 µg/mL in each case.

As to `C[C@H]1c2ccc(-c3cccc(C=O)c3)c(O)c2C(=O)C2=C(O)[C@]3(O)C(=O)C(C(N)=O)=C(O)[C@@H](N(C)C)[C@@H]3[C@@H](O)[C@@H]21`, the MIC in assay [1] (setting [7]) and in assay [2] (setting [8]) was < 4 µg/mL throughout.

On to `CN(C)C(=O)CNc1cc(N(C)C)c2c(c1O)C(=O)C1=C(O)[C@]3(O)C(=O)C(C(N)=O)=C(O)[C@@H](N(C)C)[C@@H]3C[C@@H]1C2`, for which the MIC in assay [1] (setting [7]) and in assay [2] (setting [8]) was > 4 µg/mL in each case.

`CC(=O)O[C@H]1[C@H]2C(=C(O)[C@]3(O)C(=O)C(C(N)=O)=C(O)[C@@H](N(C)C)[C@H]13)C(=O)c1c(ccc(CN3CCC(C(F)(F)F)CC3)c1O)[C@@H]2C`: the MIC in assay [1] (setting [7]) and in assay [2] (setting [8]) was < 4 µg/mL throughout.

In the case of `CN(C)c1cc(CNC(=O)C2CCCN2)c(O)c2c1C[C@H]1C[C@H]3[C@H](N(C)C)C(O)=C(C(N)=O)C(=O)[C@@]3(O)C(O)=C1C2=O` (stereo partly shown), the MIC in assay [1] (setting [7]) and in assay [2] (setting [8]) was > 4 µg/mL throughout.

For the molecule `CN(C)[C@@H]1C(O)=C(C(N)=O)C(=O)[C@@]2(O)C(O)=C3C(=O)c4c(O)ccc(/C=C/S(C)(C)C)c4C[C@H]3C[C@@H]12`, the MIC in assay [1] (setting [3]) and in assay [2] (setting [4]) was < 4 µg/mL in each case.

Turning to `CN(C)c1cc(NC(=O)Nc2ccccc2)c(O)c2c1C[C@H]1C[C@H]3C(N(C)C)C(O)=C(C(N)=O)C(=O)[C@@]3(O)C(O)=C1C2=O` (stereo partly shown), the MIC in assay [1] (setting [3]) and in assay [2] (setting [4]) was < 4 µg/mL each time.
